Experiment [1] has as its system actively sensitized guinea pigs. Nature of the experiment: Nasal secretion on repeated nasal provocations with ovalbumin in actively sensitized guinea pigs. It counts as in vivo, guinea pig. Particulars: 1.0 mg/kg/day p.o. Here is the method:
Active sensitization was carried out in a manner similar to the preparation of anti-ovalbumin serum mentioned above. Namely, 1 μg ovalbumin and 5 mg of aluminum hydroxide (adjuvant) in 1 ml of saline were injected into guinea pigs intraperitoneally 6 times every 2 weeks.
Two weeks after the active sensitization with ovalbumin, 50 μl of 1% ovalbumin in saline was administered into both anterior nares to start nasal provocation with allergen. Then the nasal provocations with ovalbumin were repeated 1, 4, 7, 10 and 13 days after the first provocation.
Defatted cotton threads (No. 40/2) were dyed with 10% fluorescein-Na in physiological saline at one end, and were cut to a total length of 100 mm with the colored end 10 mm in length. About 15 mm of the colored end of the thread was inserted into the left anterior naris of the guinea pigs for 60 sec. The length of thread dyed with fluorescein due to nasal secretion was taken as a measure of the amount of nasal secretion. (A few threads can be used together when the amount of nasal secretion is large).
Enhanced nasal mucosal sensitivity was measured by using animals obtained by repeated nasal provocations with ovalbumin in actively sensitized guinea pigs with the allergen according to the method of Examples 4, 5 and 6. The inhibitory action for nasal secretion of Ketotifen fumarate (1.0 mg/kg/day, p.o.) was also measured using this assay system.

Experiment [2] relates to passively sensitized SART stressed guinea pigs. The experiment can be described thus: Nasal secretion (dyed thread length) after nasal provocation with ovalbumin in passively sensitized SART stressed guinea pigs. It counts as in vivo, guinea pig (male Hartley strain). Particulars: for Inhibition: inhibition of nasal secretion vs control. Here is the method:
Male Hartley strain guinea pigs weighing 300 to 500 g were used. The threshold of nasal mucosal sensitivity to methacholine of these animals was previously measured with a nasal thread dyed with fluorescein, and those guinea pigs having normal sensitivity were divided into groups of 7 or 8 animals making the average of the threshold of sensitivity substantially equal in each group. To load SART stress, the guinea pigs were kept in a thermostatic box at the environmental temperature of 0° C. and 24° C. alternately for one hour period from 10:00 a.m. to 5:00 p.m., and at 0° C. from 5:00 p.m. to 10:00 a.m. the next day. This stress loading was continued for 5 days prior to sensitization. The stress-loaded guinea pigs from the previous example were sensitized intraperitoneally using 20 μg of ovalbumin and 10 mg of aluminum hydroxide (adjuvant) in 1 ml of saline 7 times every 2 weeks. After 2 weeks of the sensitization, airway sensitization was performed by ultranebulization with 3 ml of 0.1% ovalbumin in saline for 5 consecutive days. One week later, nasal provocation was performed by application of 50 μl of 1% ovalbumin in saline on both anterior nares, and antiserum was collecting from guinea pigs showing typical nasal symptoms of nasal allergy such as sneeze, nasal secretion and asthma. This anti-ovalbumin serum was preserved at -80° C. The provocation was made by application of 50 μl of 1% ovalbumin on the left anterior naris 2 days after passive sensitization by intraperitoneally injecting 2 ml of diluted anti-ovalbumin serum from the previous example (diluted ratio;×1/8). […] Defatted cotton threads (No. 40/2) were dyed with 10% fluorescein-Na in physiological saline at one end, and were cut to a total length of 100 mm with the colored end 10 mm in length. About 15 mm of the colored end of the thread was inserted into the left anterior naris of the guinea pigs for 60 sec. The length of thread dyed with fluorescein due to nasal secretion was taken as a measure of the amount of nasal secretion. (A few threads can be used together when the amount of nasal secretion is large). […] The amount of nasal secretion was measured by the length of the colored portion of the thread dyed with fluorescein.

Setting [3] is: Ketotifen fumarate 0.3 mg/kg/day p.o.
Where [4] appears, read: Ketotifen fumarate 1.0 mg/kg/day p.o.
[5] abbreviates: Ketotifen fumarate 3.0 mg/kg/day p.o.

Structures can show the parent of a compound that is named as a salt.

Usually Inhibition stands for the share of the control response that was lost under treatment. As to `CN1CCC(=C2c3ccccc3CC(=O)c3sccc32)CC1` [Ketotifen, Ketotifen fumarate], the Nasal secretion in experiment [1] (1st provocation with allergen) came out at 68.9 mm; in experiment [1] (2nd provocation with allergen (1 day)) it was 54.1 mm; in experiment [1] (3rd provocation with allergen (4 days)), 73.0 mm; in experiment [1] (4th provocation with allergen (7 days)) it was 68.5 mm; in experiment [1] (5th provocation with allergen (10 days)), 77.3 mm; in experiment [1] (6th provocation with allergen (13 days)) it was 96.9 mm. Further, the Nasal secretion in experiment [2] (setting [3]) is on record as 33.5 mm; in experiment [2] (setting [4]), 23.9 mm; in experiment [2] (setting [5]), 16.1 mm. The Inhibition in experiment [2] (setting [3]) came out at 25.5%; in experiment [2] (setting [4]), 46.9%; in experiment [2] (setting [5]), 64.2%.

The values above are taken from US5063045A, “Method for evaluating antiallergic substances” (Nippon Zoki Pharmaceutical Co., Ltd., priority 1989, dated 1991).
